# Assay results reported in patent publication US8039505B2, “Compounds for modulating T-cells” (University of Utah Research Foundation, priority 2007, dated 2011).
# Tested on: cell cycle in zebrafish embryos
# Test: Cell cycle profiles in zebrafish embryos (propidium iodide, flow cytometry)
# Format: in vivo
# Details: zebrafish embryos incubated from 4 hours post fertilization overnight, DNA content by flow cytometry
# Protocol: FIG. 2 is a group of cell cycle profiles of active compounds tested in 24 hour zebrafish embryos. Specifically, embryos incubated with E3 fishwater (panel A), hydroxyurea (panel B), compound C4 (panel C), and compound C3 (panel D) are shown. After overnight incubation, single cell solution of embryos was prepared and incubated with propidium iodide. Samples were then subjected to flow cytometry to determine DNA content (X axis). Small arrowheads below the X-axis are placed beneath the diploid (G1) n=2 peak, and the tetraploid (G2/M) n=4 peaks. Cells between these two peaks are in S phase. Cells to the left of the G1 peak (sub G1 peak) have lost chromosomes (n<2), and are presumably dying (indicated as % debris in the right hand legend of each panel). Relative numbers of cells (Y-axis) in the different phases of the cell cycle are given on the right side of each panel.
# All of these compounds were tested for effects on the cell cycle in zebrafish embryos. Zebrafish embryos were incubated at 4 hours post fertilization with compounds or controls. After overnight incubation in compounds, single cell solution of embryos was prepared and incubated with propidium iodide. Samples were then subjected to flow cytometry to determine DNA content. […] Examples are depicted in FIG. 2.
# In FIG. 2, embryos incubated with (A) E3 fishwater, (B) hydroxyurea, (C) compound C4, and (D) C3 are shown. Diploid (G1, n=2) and tetraploid (G2/M, n=4) peaks are identified on the X-axis. Small arrowheads below the X-axis are placed beneath the dipoid (G1) n=2 peak, and the tetraploid (G2/M) n=4 peaks. Cells between these two peaks are in S phase. Cells to the left of the G1 peak (sub G1 peak) have lost chromosomes (n<2) and are presumably dying (indicated as % debris in the right hand legend of each panel). Relative numbers of cells (Y axis) in the different phases of the cell cycle are given on the right side of each panel.
smiles,measurement,value
"NC(=O)NO [hydroxyurea, reference compound]",Effect on the cell cycle,S phase arrest
